Among the targets are HLA-A*68:02 (Homo sapiens, UniProt P04439, A269V/D140Y/D185E/E176V/E277Q/E87N/F33Y/G231S/I121R/I166T/I218V/L180W/L300P/L318F/N151K/P208A/P217A/Q86R/R138H/R169H/S129P/T345S/V36M); HLA-B*07:02 (Homo sapiens, UniProt P01889); HLA-A*26:01 (Homo sapiens, UniProt P04439, A114D/A173T/A270S/D101N/D185E/E277Q/E87N/F33Y/G231S/I121R/I218V/K168Q/L180W/L300P/L318F/P208A/P217A/Q86R/Q94H/R138Q/S129P/T187R/T323A/T345S/V100A/V358M); HLA-A*11:01 (Homo sapiens, UniProt P04439, A114D/D185E/E176A/F33Y/L180Q/S129P/T187R); HLA-A*30:01 (Homo sapiens, UniProt P04439, D140H/D185E/E176W/F33S/G80R/H175R/K168Q/R138E/R41S); HLA-A*31:01 (Homo sapiens, UniProt P04439, A270S/D185E/E176V/E277Q/F33T/G231S/G80R/H175R/I121M/I218V/I322F/K168Q/L300P/L318F/M331R/P217A/Q94H/R138Q/T323A/T345S/T97I/V358M); HLA-A*68:01 (Homo sapiens, UniProt P04439, A269V/D185E/E176V/E277Q/E87N/F33Y/G231S/I121M/I166T/I218V/L180W/L300P/L318F/N151K/P208A/P217A/Q86R/R169H/T345S); HLA-A*03:01 (Homo sapiens, UniProt P04439).

Common to all, as to experiment: biochemical
Format in all cases: binding

Each structure is given as a SMILES string. pIC50: −log10 of the molar value. Where a SMILES comes first, the peptide text is derived from it.

A word on the pIC50: it is the IC50 on a negative log10 scale, so that one unit is a factor of ten. As for `CC(C)C[C@H](NC(=O)[C@H](C)NC(=O)[C@H](CCC(N)=O)NC(=O)[C@H](CCCCN)NC(=O)[C@H](Cc1ccccc1)NC(=O)[C@H](CO)NC(=O)[C@H](C)NC(=O)[C@@H](NC(=O)[C@@H](N)CCC(=O)O)C(C)C)C(=O)O` [EVASFKQAL] (H-EVASFKQAL-OH), the pIC50 against HLA-A*68:02 is 8.57; against HLA-B*07:02, 6.60; at HLA-A*26:01 it was 7.07.

Consider `CC(C)C[C@H](NC(=O)[C@H](CO)NC(=O)[C@H](CS)NC(=O)[C@H](Cc1ccccc1)NC(=O)[C@H](CO)NC(=O)[C@@H](N)CC(C)C)C(=O)N[C@@H](Cc1ccccc1)C(=O)N[C@@H](CC(C)C)C(=O)N1CCC[C@H]1C(=O)N[C@@H](CCCCN)C(=O)O` (H-LSFCSLFLPK-OH), for which the pIC50 against HLA-A*11:01 was 9.17; against HLA-A*30:01 it was 6.62; against HLA-A*31:01 it was 6.16; at HLA-A*68:01 it was 9.00; at HLA-A*03:01, 8.37.

The values above are taken from article PMC10976095 (Vaccines, 2024).
